Laboratory results from paper PMC7316745, “A small-molecule ARTS mimetic promotes apoptosis through degradation of both XIAP and Bcl-2” (Cell Death & Disease, 2020).

What was measured:
[1] = biological target: T1, XIAP (Homo sapiens, UniProt P98170); test: microscale thermophoresis (MST); type: binding
T1 construct: recombinant untagged XIAP, NT650-labelled (maleimide coupling)

[2] = test system: 786-0; test: cells; parameters: Sulforhodamine B growth/viability assay on tumour cell line panel (Oncolead), six dilutions, compound replenished daily; settings: Homo sapiens, 786-0; 72 h, SRB; read-out: Supplementary table 1 / A4 IC50
Experimental: (§1) Screening of 94 different cancer cell lines spanning over 18 human tissues was performed by Oncolead Ltd. The company used an identical platform to the one NIH, NCI-60 uses to assess the effect of a compound on the viability of a variety of tumour cell lines. Briefly, cells are treated with a series of six dilutions of a compound for 72 h (compound is replenished daily). After 72 h, cells were fixed (living cells are attached to the plate), and then washed to remove dead and dying cells. Cells were then stained with a dye (sulforhodamine B) that dyes all proteins purple, which is measured by a plate reader and provides quantification of living cells. The number of cells treated with the compound is compared to the number of cells treated with DMSO (solvent). The inhibitory concentration (IC) value was calculated by taking the number of cells after 72 h of treatment and dividing by the number of cells after 72 h treatment with DMSO (C). IC50 is the value calculated from the dose–response plot, which is the concentration of the compound that has 50% decrease of the IC. To determine the specificity of A4 killing for various types of cancer, a panel of 94 cancer cell lines representing 18 different types of cancers were tested. The IC50 values for each cell line treated with A4 were determined (Oncolead Ltd). The cancers that were most sensitive to A4 killing were of haematological origin (8/12 different cell lines), melanoma (3/5 lines), pancreatic cancer and 4/7 lung cancers. Importantly, peripheral blood mononuclear cells (PBMCs), representing healthy normal cells, and 184A1, a normal human epithelium mammary gland cell, were not killed by A4 (Fig. 5a, Supplementary Table 1 and Fig. 5cI, respectively). To explore whether the levels of XIAP and Bcl-2 protein affect the sensitivity to A4, we analysed the available web proteomes and looked for a correlation. While data regarding XIAP expression levels were found in most proteomes (28 of 32 proteomes), Bcl-2 expression data were only detected in few (9 of 32 proteomes) (data not shown). A significant correlation was found between XIAP expression levels (ratio to actin, GAPDH) and the sensitivity to A4 (IC50, µM) in breast, ovary and kidney carcinomas (Fig. 5bI, II and Supplementary Tables 1 and 2). Cancer cell lines with high levels of XIAP were particularly sensitive to the killing effect of A4 (Fig. 5bI, II and Supplementary Tables 1 and 2). […] To further confirm that A4 functions as a specific antagonist for XIAP, we performed a SKOV-3 rescue assay. SKOV-3 ovarian carcinoma cells are highly sensitive to SMs[49]. SMs act by antagonizing cIAPs, an event that leads to cell death when complemented by an XIAP-dependent increase in TNFα production[47],[48],[58]. In SKOV-3 cells, XIAP is required for TNFα production, which recruits cIAP into a complex that activates caspase-8 and apoptosis through the extrinsic pathway (Fig. 6a)[49]. Knockdown of XIAP in SKOV-3 cells bestowed resistance to SMs[49]. We utilized this assay to investigate the specificity of A4 for XIAP compared to cIAPs. Treatment with 1 μM of the SM Birinapant for […]

[3] = test system: ACHN; test: cells; parameters: Sulforhodamine B growth/viability assay on tumour cell line panel (Oncolead), six dilutions, compound replenished daily; settings: Homo sapiens, ACHN; 72 h, SRB; read-out: Supplementary table 1 / A4 IC50
Experimental: as §1

[4] = test system: COLO205; test: cells; parameters: Sulforhodamine B growth/viability assay on tumour cell line panel (Oncolead), six dilutions, compound replenished daily; settings: Homo sapiens, COLO 205; 72 h, SRB; read-out: Supplementary table 1 / A4 IC50
Experimental: as §1

[5] = test system: COLO678; test: cells; parameters: Sulforhodamine B growth/viability assay on tumour cell line panel (Oncolead), six dilutions, compound replenished daily; settings: Homo sapiens, COLO-678; 72 h, SRB; read-out: Supplementary table 1 / A4 IC50
Experimental: as §1

[6] = test system: Caco-2; test: cells; parameters: Sulforhodamine B growth/viability assay on tumour cell line panel (Oncolead), six dilutions, compound replenished daily; settings: Homo sapiens, Caco-2; 72 h, SRB; read-out: Supplementary table 1 / A4 IC50
Experimental: as §1

[7] = test system: Caki1; test: cells; parameters: Sulforhodamine B growth/viability assay on tumour cell line panel (Oncolead), six dilutions, compound replenished daily; settings: Homo sapiens, CAKI-1; 72 h, SRB; read-out: Supplementary table 1 / A4 IC50
Experimental: as §1

[8] = test system: DLD1; test: cells; parameters: Sulforhodamine B growth/viability assay on tumour cell line panel (Oncolead), six dilutions, compound replenished daily; settings: Homo sapiens, DLD-1; 72 h, SRB; read-out: Supplementary table 1 / A4 IC50
Experimental: as §1

[9] = test system: HCT116; test: cells; parameters: Sulforhodamine B growth/viability assay on tumour cell line panel (Oncolead), six dilutions, compound replenished daily; settings: Homo sapiens, HCT-116; 72 h, SRB; read-out: Supplementary table 1 / A4 IC50
Experimental: as §1

[10] = test system: HCT15; test: cells; parameters: Sulforhodamine B growth/viability assay on tumour cell line panel (Oncolead), six dilutions, compound replenished daily; settings: Homo sapiens, HCT-15; 72 h, SRB; read-out: Supplementary table 1 / A4 IC50
Experimental: as §1

[11] = test system: HEK293; test: cells; parameters: Sulforhodamine B growth/viability assay on tumour cell line panel (Oncolead), six dilutions, compound replenished daily; settings: Homo sapiens, HEK293; 72 h, SRB; read-out: Supplementary table 1 / A4 IC50
Experimental: as §1

[12] = test system: HS578T; test: cells; parameters: Sulforhodamine B growth/viability assay on tumour cell line panel (Oncolead), six dilutions, compound replenished daily; settings: Homo sapiens, Hs-578T; 72 h, SRB; read-out: Supplementary table 1 / A4 IC50
Experimental: as §1

[13] = test system: HT-29; test: cells; parameters: Sulforhodamine B growth/viability assay on tumour cell line panel (Oncolead), six dilutions, compound replenished daily; settings: Homo sapiens, HT-29; 72 h, SRB; read-out: Supplementary table 1 / A4 IC50
Experimental: as §1

[14] = test system: IGROV-1; test: cells; parameters: Sulforhodamine B growth/viability assay on tumour cell line panel (Oncolead), six dilutions, compound replenished daily; settings: Homo sapiens, IGROV-1; 72 h, SRB; read-out: Supplementary table 1 / A4 IC50
Experimental: as §1

[15] = test system: LOVO; test: cells; parameters: Sulforhodamine B growth/viability assay on tumour cell line panel (Oncolead), six dilutions, compound replenished daily; settings: Homo sapiens, LoVo; 72 h, SRB; read-out: Supplementary table 1 / A4 IC50
Experimental: as §1

[16] = test system: MCF-7; test: cells; parameters: Sulforhodamine B growth/viability assay on tumour cell line panel (Oncolead), six dilutions, compound replenished daily; settings: Homo sapiens, MCF7; 72 h, SRB; read-out: Supplementary table 1 / A4 IC50
Experimental: as §1

[17] = test system: MDAMB231; test: cells; parameters: Sulforhodamine B growth/viability assay on tumour cell line panel (Oncolead), six dilutions, compound replenished daily; settings: Homo sapiens, MDA-MB-231; 72 h, SRB; read-out: Supplementary table 1 / A4 IC50
Experimental: as §1

[18] = test system: MDAMB436; test: cells; parameters: Sulforhodamine B growth/viability assay on tumour cell line panel (Oncolead), six dilutions, compound replenished daily; settings: Homo sapiens, MDA-MB-436; 72 h, SRB; read-out: Supplementary table 1 / A4 IC50
Experimental: as §1

[19] = test system: MDAMB468; test: cells; parameters: Sulforhodamine B growth/viability assay on tumour cell line panel (Oncolead), six dilutions, compound replenished daily; settings: Homo sapiens, MDA-MB-468; 72 h, SRB; read-out: Supplementary table 1 / A4 IC50
Experimental: as §1

[20] = test system: OVCAR3; test: cells; parameters: Sulforhodamine B growth/viability assay on tumour cell line panel (Oncolead), six dilutions, compound replenished daily; settings: Homo sapiens, OVCAR-3; 72 h, SRB; read-out: Supplementary table 1 / A4 IC50
Experimental: as §1

[21] = test system: OVCAR4; test: cells; parameters: Sulforhodamine B growth/viability assay on tumour cell line panel (Oncolead), six dilutions, compound replenished daily; settings: Homo sapiens, OVCAR-4; 72 h, SRB; read-out: Supplementary table 1 / A4 IC50
Experimental: as §1

[22] = test system: SKBR3; test: cells; parameters: Sulforhodamine B growth/viability assay on tumour cell line panel (Oncolead), six dilutions, compound replenished daily; settings: Homo sapiens, SK-BR-3; 72 h, SRB; read-out: Supplementary table 1 / A4 IC50
Experimental: as §1

[23] = test system: SKOV-3; test: cells; parameters: Sulforhodamine B growth/viability assay on tumour cell line panel (Oncolead), six dilutions, compound replenished daily; settings: Homo sapiens, SK-OV-3; 72 h, SRB; read-out: Supplementary table 1 / A4 IC50
Experimental: as §1

[24] = test system: SW620; test: cells; parameters: Sulforhodamine B growth/viability assay on tumour cell line panel (Oncolead), six dilutions, compound replenished daily; settings: Homo sapiens, SW-620; 72 h, SRB; read-out: Supplementary table 1 / A4 IC50
Experimental: as §1

[25] = test system: UO31; test: cells; parameters: Sulforhodamine B growth/viability assay on tumour cell line panel (Oncolead), six dilutions, compound replenished daily; settings: Homo sapiens, UO-31; 72 h, SRB; read-out: Supplementary table 1 / A4 IC50
Experimental: as §1

T1 sequence (P98170 whole entry): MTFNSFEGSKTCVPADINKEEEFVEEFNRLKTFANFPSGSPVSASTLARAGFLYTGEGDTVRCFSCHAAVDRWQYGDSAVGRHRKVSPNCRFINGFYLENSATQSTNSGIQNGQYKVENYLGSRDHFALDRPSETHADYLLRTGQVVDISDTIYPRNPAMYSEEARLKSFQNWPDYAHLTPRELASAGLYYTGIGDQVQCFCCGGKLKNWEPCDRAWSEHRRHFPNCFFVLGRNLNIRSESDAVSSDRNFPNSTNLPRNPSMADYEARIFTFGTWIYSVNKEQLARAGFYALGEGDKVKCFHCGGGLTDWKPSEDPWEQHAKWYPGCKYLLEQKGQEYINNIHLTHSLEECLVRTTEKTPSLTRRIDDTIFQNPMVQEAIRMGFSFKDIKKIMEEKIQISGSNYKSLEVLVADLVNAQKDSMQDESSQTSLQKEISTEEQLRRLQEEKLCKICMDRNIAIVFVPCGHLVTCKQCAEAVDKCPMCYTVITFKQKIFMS

Work on `COC(=O)c1[nH]c2ccc(Cl)cc2c1NC(=O)CN1CCN(Cc2ccccc2)CC1` [A4, methyl 5-chloro-3-[[2-[4-(phenylmethyl)piperazin-1-yl]acetyl]amino]-1H-indole-2-carboxylat] yielded a Kd [1] of 0.348 ± 0.228 µM, an IC50 [2] of 6.3 µM and an IC50 [3] of 5.99 µM. The IC50 [4] was 7.38 µM, the IC50 [5] was 14.4 µM and the IC50 [6] was 8.14 µM. The IC50 [7] was 8.14 µM, the IC50 [8] was 8.24 µM and the IC50 [9] was 11.2 µM. It also gave an IC50 [10] of 5.03 µM, an IC50 [11] of 2.8 µM and an IC50 [12] of 9.56 µM. It also gave an IC50 [13] of 1.84 µM, an IC50 [14] of 8.08 µM and an IC50 [15] of 5.96 µM. The IC50 [16] was 4.61 µM, the IC50 [17] was 10.1 µM and the IC50 [18] was 7.16 µM. It also gave an IC50 [19] of 6.22 µM, an IC50 [20] of 8.4 µM and an IC50 [21] of 9.99 µM. For the same compound, the IC50 [22] was 7.98 µM, the IC50 [23] was 13.6 µM and the IC50 [24] was 10.4 µM. The IC50 [25] was 6.48 µM.
